Columns and labels:
Test in all cases: radiometric filter-binding kinase assay, Kinase HotSpot
Conditions in all cases: compound 0.5 µM; ATP 10 µM
AURKA (human) = AURKA (human) (UniProt O14965)
AURKC (human) = AURKC (human) (UniProt Q9UQB9)
CAMK1D (human) = CAMK1D (human) (UniProt Q8IU85)
CDK5 CDK5R1 p35 (human) = CDK5 CDK5R1 p35 (human) (UniProt Q00535+Q15078)
CDK9 CCNK (human) = CDK9 CCNK (human) (UniProt O75909+P50750)
CDK9 CCNT1 (human) = CDK9 CCNT1 (human) (UniProt P50750+O60563)
CLK1 (human) = CLK1 (human) (UniProt P49759)
CSNK1E (human) = CSNK1E (human) (UniProt P49674)
FGFR4 (human) = FGFR4 (human) (UniProt P22455)
FGR (human) = FGR (human) (UniProt P09769)
FLT1 (human) = FLT1 (human) (UniProt P17948)
GRK7 (human) = GRK7 (human) (UniProt Q8WTQ7)
Sequence of GRK7 (human) (Q8WTQ7 whole entry, looked up): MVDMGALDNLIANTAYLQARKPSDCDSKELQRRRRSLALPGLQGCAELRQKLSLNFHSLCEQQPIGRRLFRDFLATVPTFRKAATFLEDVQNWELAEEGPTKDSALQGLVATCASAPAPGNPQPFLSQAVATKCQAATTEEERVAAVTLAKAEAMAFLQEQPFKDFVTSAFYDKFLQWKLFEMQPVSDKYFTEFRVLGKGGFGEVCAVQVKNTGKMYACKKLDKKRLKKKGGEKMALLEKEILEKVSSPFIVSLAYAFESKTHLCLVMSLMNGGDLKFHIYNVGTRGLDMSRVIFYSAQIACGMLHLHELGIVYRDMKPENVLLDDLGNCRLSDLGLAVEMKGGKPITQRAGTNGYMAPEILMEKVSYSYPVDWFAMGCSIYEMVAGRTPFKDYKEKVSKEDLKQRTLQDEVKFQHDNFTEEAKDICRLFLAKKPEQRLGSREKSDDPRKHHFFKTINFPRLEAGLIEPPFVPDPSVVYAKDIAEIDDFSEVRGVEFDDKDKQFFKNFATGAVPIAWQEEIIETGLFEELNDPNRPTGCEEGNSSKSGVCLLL

HIPK1 (human) = HIPK1 (human) (UniProt Q86Z02)
Sequence of HIPK1 (human) (Q86Z02 whole entry, looked up): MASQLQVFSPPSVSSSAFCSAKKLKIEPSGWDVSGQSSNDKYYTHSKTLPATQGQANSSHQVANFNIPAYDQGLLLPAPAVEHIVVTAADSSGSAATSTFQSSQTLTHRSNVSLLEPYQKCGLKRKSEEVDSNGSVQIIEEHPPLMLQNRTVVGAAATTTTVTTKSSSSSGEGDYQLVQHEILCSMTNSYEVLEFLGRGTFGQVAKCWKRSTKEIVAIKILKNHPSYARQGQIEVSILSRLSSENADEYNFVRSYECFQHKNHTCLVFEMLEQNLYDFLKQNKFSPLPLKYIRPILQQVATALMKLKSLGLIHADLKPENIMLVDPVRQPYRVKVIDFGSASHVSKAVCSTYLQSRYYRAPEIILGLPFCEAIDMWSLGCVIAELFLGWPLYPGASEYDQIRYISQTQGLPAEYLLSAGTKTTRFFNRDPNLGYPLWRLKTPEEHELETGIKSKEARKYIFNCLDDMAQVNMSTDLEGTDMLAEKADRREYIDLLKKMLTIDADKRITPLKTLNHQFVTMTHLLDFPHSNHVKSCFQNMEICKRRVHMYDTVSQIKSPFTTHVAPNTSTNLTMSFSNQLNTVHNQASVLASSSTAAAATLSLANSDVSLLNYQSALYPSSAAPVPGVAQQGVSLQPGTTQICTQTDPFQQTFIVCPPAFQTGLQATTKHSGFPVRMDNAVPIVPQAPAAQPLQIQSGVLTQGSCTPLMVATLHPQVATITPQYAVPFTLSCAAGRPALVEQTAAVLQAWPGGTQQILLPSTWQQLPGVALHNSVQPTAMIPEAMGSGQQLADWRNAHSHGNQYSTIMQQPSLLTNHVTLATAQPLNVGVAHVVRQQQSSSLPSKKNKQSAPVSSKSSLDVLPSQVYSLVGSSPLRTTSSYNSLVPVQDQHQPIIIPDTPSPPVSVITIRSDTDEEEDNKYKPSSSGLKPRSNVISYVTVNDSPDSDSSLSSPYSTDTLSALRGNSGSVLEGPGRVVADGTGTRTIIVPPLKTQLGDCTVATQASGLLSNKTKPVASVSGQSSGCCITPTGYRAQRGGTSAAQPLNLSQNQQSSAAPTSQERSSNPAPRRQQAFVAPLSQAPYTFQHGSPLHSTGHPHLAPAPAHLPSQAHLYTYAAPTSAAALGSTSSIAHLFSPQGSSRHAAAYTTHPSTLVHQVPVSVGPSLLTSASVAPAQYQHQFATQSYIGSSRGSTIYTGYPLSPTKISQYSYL

HIPK3 (human) = HIPK3 (human) (UniProt Q9H422)
HIPK4 (human) = HIPK4 (human) (UniProt Q8NE63)
IRAK4 (human) = IRAK4 (human) (UniProt Q9NWZ3)
MAP3K11 (human) = MAP3K11 (human) (UniProt Q16584)
MAP3K2 (human) = MAP3K2 (human) (UniProt Q9Y2U5)
MAP3K3 (human) = MAP3K3 (human) (UniProt Q99759)
MAP3K8 (human) = MAP3K8 (human) (UniProt P41279)
MAP4K5 (human) = MAP4K5 (human) (UniProt Q9Y4K4)
MAPKAPK2 (human) = MAPKAPK2 (human) (UniProt P49137)
NEK1 (human) = NEK1 (human) (UniProt Q96PY6)
NTRK1 (human) = NTRK1 (human) (UniProt P04629)
NTRK3 (human) = NTRK3 (human) (UniProt Q16288)
Sequence of NTRK3 (human) (Q16288 whole entry, looked up): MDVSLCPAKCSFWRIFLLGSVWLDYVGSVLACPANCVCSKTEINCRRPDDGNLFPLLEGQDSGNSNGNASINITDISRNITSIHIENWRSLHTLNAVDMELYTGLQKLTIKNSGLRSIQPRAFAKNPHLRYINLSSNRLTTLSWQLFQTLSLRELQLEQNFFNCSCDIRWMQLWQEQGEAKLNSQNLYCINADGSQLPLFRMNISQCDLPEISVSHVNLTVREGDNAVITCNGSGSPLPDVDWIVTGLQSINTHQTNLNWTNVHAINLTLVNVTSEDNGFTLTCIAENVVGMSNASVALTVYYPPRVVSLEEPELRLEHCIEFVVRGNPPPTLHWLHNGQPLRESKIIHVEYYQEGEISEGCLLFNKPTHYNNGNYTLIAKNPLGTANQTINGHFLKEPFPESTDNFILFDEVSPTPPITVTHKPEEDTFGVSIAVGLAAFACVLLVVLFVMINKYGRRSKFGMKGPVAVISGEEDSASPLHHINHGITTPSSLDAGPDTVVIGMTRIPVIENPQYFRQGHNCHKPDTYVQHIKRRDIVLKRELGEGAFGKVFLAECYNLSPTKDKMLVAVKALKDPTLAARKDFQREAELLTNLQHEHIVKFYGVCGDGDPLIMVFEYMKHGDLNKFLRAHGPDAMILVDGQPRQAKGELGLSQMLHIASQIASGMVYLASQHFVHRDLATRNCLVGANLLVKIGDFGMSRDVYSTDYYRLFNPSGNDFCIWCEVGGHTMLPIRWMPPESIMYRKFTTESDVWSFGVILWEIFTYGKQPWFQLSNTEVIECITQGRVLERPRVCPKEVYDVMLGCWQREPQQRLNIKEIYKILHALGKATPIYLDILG

PAK2 (human) = PAK2 (human) (UniProt Q13177)
PLK3 (human) = PLK3 (human) (UniProt Q9H4B4)
PNCK (human) = PNCK (human) (UniProt Q6P2M8)
RAF1 (human) = RAF1 (human) (UniProt P04049)
Sequence of RAF1 (human) (P04049 whole entry, looked up): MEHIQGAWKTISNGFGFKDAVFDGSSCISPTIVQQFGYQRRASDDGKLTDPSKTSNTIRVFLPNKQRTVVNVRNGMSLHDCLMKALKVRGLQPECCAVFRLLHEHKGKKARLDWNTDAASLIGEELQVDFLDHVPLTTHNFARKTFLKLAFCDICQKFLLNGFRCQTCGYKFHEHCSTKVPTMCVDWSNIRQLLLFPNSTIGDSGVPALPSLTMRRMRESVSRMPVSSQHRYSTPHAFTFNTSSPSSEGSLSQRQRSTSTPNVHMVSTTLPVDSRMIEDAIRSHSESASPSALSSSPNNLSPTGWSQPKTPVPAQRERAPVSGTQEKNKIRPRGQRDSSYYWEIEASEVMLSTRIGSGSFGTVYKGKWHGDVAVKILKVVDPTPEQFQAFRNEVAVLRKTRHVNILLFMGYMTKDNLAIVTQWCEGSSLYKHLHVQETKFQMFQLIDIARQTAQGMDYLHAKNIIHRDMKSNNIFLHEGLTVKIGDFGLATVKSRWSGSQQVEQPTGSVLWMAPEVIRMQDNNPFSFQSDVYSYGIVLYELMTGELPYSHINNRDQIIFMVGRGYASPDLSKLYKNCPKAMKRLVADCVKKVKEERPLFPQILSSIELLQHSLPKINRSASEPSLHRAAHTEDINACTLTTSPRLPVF

RPS6KB1 (human) = RPS6KB1 (human) (UniProt P23443)
SGK2 (human) = SGK2 (human) (UniProt Q9HBY8)
SGK3 (human) = SGK3 (human) (UniProt Q96BR1)
SLK (human) = SLK (human) (UniProt Q9H2G2)
STK10 (human) = STK10 (human) (UniProt O94804)
Sequence of STK10 (human) (O94804 whole entry, looked up): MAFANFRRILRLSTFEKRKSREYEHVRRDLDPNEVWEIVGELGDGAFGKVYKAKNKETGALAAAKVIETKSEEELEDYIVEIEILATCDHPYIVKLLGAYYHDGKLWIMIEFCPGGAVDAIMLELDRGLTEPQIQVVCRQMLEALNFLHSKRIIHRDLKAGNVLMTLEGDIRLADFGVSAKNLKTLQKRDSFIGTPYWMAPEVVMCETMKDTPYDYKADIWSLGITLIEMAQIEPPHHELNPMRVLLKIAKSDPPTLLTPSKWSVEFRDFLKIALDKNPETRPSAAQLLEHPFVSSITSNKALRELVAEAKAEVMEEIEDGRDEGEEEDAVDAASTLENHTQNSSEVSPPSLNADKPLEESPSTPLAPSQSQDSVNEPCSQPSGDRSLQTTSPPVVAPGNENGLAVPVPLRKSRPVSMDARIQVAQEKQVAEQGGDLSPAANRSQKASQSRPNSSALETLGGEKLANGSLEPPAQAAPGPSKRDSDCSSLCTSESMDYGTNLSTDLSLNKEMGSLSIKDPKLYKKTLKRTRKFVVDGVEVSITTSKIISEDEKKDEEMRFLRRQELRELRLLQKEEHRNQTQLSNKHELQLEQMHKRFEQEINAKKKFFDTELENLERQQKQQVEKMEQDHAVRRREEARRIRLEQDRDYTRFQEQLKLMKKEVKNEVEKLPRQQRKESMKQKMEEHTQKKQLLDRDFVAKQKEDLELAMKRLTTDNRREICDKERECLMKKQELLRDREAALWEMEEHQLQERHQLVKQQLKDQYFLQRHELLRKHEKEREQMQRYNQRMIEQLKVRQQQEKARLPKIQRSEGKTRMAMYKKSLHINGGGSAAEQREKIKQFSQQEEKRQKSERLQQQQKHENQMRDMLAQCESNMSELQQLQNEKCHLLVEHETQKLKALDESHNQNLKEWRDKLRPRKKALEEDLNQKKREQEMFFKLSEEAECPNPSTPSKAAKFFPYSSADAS

STK4 (human) = STK4 (human) (UniProt Q13043)
SYK (human) = SYK (human) (UniProt P43405)
TAOK3 (human) = TAOK3 (human) (UniProt Q9H2K8)
TEK (human) = TEK (human) (UniProt Q02763)
TNK2 (human) = TNK2 (human) (UniProt Q07912)
VRK1 (human) = VRK1 (human) (UniProt Q99986)
WEE1 (human) = WEE1 (human) (UniProt P30291)
PRKCH (human) = PRKCH (human) (UniProt P24723)

Sequence of AURKA (human) (O14965 whole entry, looked up): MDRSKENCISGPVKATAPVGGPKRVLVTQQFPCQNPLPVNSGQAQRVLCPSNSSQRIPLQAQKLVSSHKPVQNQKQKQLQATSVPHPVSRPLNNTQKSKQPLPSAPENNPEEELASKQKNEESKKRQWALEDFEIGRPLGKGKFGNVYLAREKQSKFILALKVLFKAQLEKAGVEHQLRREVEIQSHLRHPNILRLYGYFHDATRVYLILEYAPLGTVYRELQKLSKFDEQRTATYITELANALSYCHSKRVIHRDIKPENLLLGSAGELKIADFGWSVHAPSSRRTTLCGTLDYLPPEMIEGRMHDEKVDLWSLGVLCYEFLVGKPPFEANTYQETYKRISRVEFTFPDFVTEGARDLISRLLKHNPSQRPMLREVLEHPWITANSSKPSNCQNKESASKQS
Sequence of CAMK1D (human) (Q8IU85 whole entry, looked up): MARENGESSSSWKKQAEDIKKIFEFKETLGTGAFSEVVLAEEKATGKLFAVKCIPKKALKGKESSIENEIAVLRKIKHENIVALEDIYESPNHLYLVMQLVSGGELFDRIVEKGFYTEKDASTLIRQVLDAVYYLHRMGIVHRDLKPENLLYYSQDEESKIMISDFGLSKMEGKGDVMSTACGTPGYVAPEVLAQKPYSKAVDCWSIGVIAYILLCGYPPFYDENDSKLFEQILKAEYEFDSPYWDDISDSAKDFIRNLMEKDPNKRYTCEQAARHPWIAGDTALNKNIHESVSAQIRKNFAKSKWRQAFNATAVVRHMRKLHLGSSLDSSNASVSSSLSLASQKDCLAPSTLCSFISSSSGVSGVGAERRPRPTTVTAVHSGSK

Q: For `COc1cc2ncnc(Nc3ccc(F)c(Cl)c3)c2cc1OCCCN1CCOCC1`, which residual activity (AURKA (human)) is on record?
A: 95.3%

Q: And the residual activity (AURKC (human))?
A: 89.7%

Q: And the residual activity (CAMK1D (human))?
A: 88.6%

Q: And the residual activity (CDK5 CDK5R1 p35 (human))?
A: 103%

Q: And the residual activity (CDK9 CCNK (human))?
A: 99.3%

Q: And the residual activity (CDK9 CCNT1 (human))?
A: 87.3%

Q: What about the residual activity (CLK1 (human)) of the same compound?
A: 105%

Q: What about the residual activity (CSNK1E (human)) of the same compound?
A: 106%

Q: What about the residual activity (FGFR4 (human)) of the same compound?
A: 92.4%

Q: What about the residual activity (FGR (human)) of the same compound?
A: 70.1%

Q: And the residual activity (FLT1 (human))?
A: 98.3%

Q: And the residual activity (GRK7 (human))?
A: 96.2%

Q: What about the residual activity (HIPK1 (human)) of the same compound?
A: 97.6%

Q: What about the residual activity (HIPK3 (human)) of the same compound?
A: 103%

Q: What about the residual activity (HIPK4 (human)) of the same compound?
A: 90.4%

Q: What about the residual activity (IRAK4 (human)) of the same compound?
A: 78.8%

Q: What about the residual activity (MAP3K11 (human)) of the same compound?
A: 102%

Q: What about the residual activity (MAP3K2 (human)) of the same compound?
A: 109%

Q: And the residual activity (MAP3K3 (human))?
A: 107%

Q: What about the residual activity (MAP3K8 (human)) of the same compound?
A: 95.7%

Q: What about the residual activity (MAP4K5 (human)) of the same compound?
A: 80%

Q: What about the residual activity (MAPKAPK2 (human)) of the same compound?
A: 97.5%

Q: What about the residual activity (NEK1 (human)) of the same compound?
A: 90.4%

Q: And the residual activity (NTRK1 (human))?
A: 103%

Q: What about the residual activity (NTRK3 (human)) of the same compound?
A: 103%

Q: What about the residual activity (PAK2 (human)) of the same compound?
A: 100%

Q: And the residual activity (PLK3 (human))?
A: 103%

Q: What about the residual activity (PNCK (human)) of the same compound?
A: 108%

Q: And the residual activity (RAF1 (human))?
A: 90.9%

Q: And the residual activity (RPS6KB1 (human))?
A: 93.9%

Q: What about the residual activity (SGK2 (human)) of the same compound?
A: 117%

Q: What about the residual activity (SGK3 (human)) of the same compound?
A: 98.3%

Q: What about the residual activity (SLK (human)) of the same compound?
A: 83.7%

Q: What about the residual activity (STK10 (human)) of the same compound?
A: 38.6%

Q: And the residual activity (STK4 (human))?
A: 101%

Q: And the residual activity (SYK (human))?
A: 104%

Q: And the residual activity (TAOK3 (human))?
A: 99.5%

Q: And the residual activity (TEK (human))?
A: 96.2%

Q: And the residual activity (TNK2 (human))?
A: 72.8%

Q: What about the residual activity (VRK1 (human)) of the same compound?
A: 99.3%

Q: What about the residual activity (WEE1 (human)) of the same compound?
A: 93.8%

Q: What does the source list for `CC(C)(C)c1nc2c3ccc(F)cc3c3c(=O)[nH]ccc3c2[nH]1`?
A: residual activity (AURKA (human)): 22.3%; residual activity (AURKC (human)): 29.3%; residual activity (CAMK1D (human)): 81.6%; residual activity (CDK9 CCNK (human)): 92.3%; residual activity (CDK9 CCNT1 (human)): 100%; residual activity (CLK1 (human)): 81.6%; residual activity (CSNK1E (human)): 85.6%; residual activity (FGFR4 (human)): 96.5%; residual activity (FGR (human)): 76.9%; residual activity (FLT1 (human)): 92.3%; residual activity (GRK7 (human)): 60.5%; residual activity (HIPK1 (human)): 88.7%; residual activity (HIPK3 (human)): 78.6%; residual activity (HIPK4 (human)): 107%; residual activity (IRAK4 (human)): 96.3%; residual activity (MAP3K11 (human)): 57%; residual activity (MAP3K2 (human)): 33.9%; residual activity (MAP3K3 (human)): 61.1%; residual activity (MAP3K8 (human)): 128%; residual activity (MAP4K5 (human)): 65.8%; residual activity (MAPKAPK2 (human)): 99.6%; residual activity (NEK1 (human)): 49%; residual activity (NTRK1 (human)): 48.7%; residual activity (NTRK3 (human)): 6.81%; residual activity (PAK2 (human)): 88.8%; residual activity (PLK3 (human)): 11%; residual activity (PNCK (human)): 112%; residual activity (PRKCH (human)): 81.5%; residual activity (RAF1 (human)): 134%; residual activity (RPS6KB1 (human)): 74.1%; residual activity (SGK2 (human)): 84.4%; residual activity (SGK3 (human)): 96.6%; residual activity (SLK (human)): 91.4%; residual activity (STK10 (human)): 72.6%; residual activity (STK4 (human)): 6.84%; residual activity (SYK (human)): 79%; residual activity (TAOK3 (human)): 50.3%; residual activity (TEK (human)): 101%; residual activity (TNK2 (human)): 4.36%; residual activity (VRK1 (human)): 82.2%; residual activity (WEE1 (human)): 87.4%

Q: With `O=C(NC(NC(=S)Nc1ccc(F)c([N+](=O)[O-])c1)C(Cl)(Cl)Cl)C(c1ccccc1)c1ccccc1` (stereo not drawn) as the compound, how does the residual activity (AURKA (human)) read?
A: 80.8%

Q: And the residual activity (AURKC (human))?
A: 93.8%

Q: What about the residual activity (CAMK1D (human)) of the same compound?
A: 99%

Q: And the residual activity (CDK9 CCNK (human))?
A: 110%

Q: What about the residual activity (CDK9 CCNT1 (human)) of the same compound?
A: 95%

Q: And the residual activity (CLK1 (human))?
A: 106%

Q: What about the residual activity (CSNK1E (human)) of the same compound?
A: 111%

Q: And the residual activity (FGFR4 (human))?
A: 100%

Q: What about the residual activity (FGR (human)) of the same compound?
A: 84.5%

Q: And the residual activity (FLT1 (human))?
A: 97.2%

Q: And the residual activity (GRK7 (human))?
A: 101%

Q: What about the residual activity (HIPK1 (human)) of the same compound?
A: 108%

Q: And the residual activity (HIPK3 (human))?
A: 105%

Q: And the residual activity (HIPK4 (human))?
A: 104%

Q: And the residual activity (IRAK4 (human))?
A: 191%

Q: And the residual activity (MAP3K11 (human))?
A: 102%

Q: And the residual activity (MAP3K2 (human))?
A: 96.8%

Q: And the residual activity (MAP3K3 (human))?
A: 118%

Q: And the residual activity (MAP3K8 (human))?
A: 105%

Q: And the residual activity (MAP4K5 (human))?
A: 91%

Q: What about the residual activity (MAPKAPK2 (human)) of the same compound?
A: 96.3%

Q: And the residual activity (NEK1 (human))?
A: 101%

Q: What about the residual activity (NTRK1 (human)) of the same compound?
A: 107%

Q: And the residual activity (NTRK3 (human))?
A: 108%

Q: What about the residual activity (PAK2 (human)) of the same compound?
A: 100%

Q: What about the residual activity (PLK3 (human)) of the same compound?
A: 94.4%

Q: And the residual activity (PNCK (human))?
A: 115%

Q: What about the residual activity (PRKCH (human)) of the same compound?
A: 103%

Q: What about the residual activity (RAF1 (human)) of the same compound?
A: 95.3%

Q: And the residual activity (RPS6KB1 (human))?
A: 91.9%

Q: What about the residual activity (SGK2 (human)) of the same compound?
A: 119%

Q: And the residual activity (SGK3 (human))?
A: 85.8%

Q: And the residual activity (SLK (human))?
A: 95.2%

Q: What about the residual activity (STK10 (human)) of the same compound?
A: 108%

Q: What about the residual activity (STK4 (human)) of the same compound?
A: 96.2%

Q: What about the residual activity (SYK (human)) of the same compound?
A: 104%

Q: And the residual activity (TAOK3 (human))?
A: 121%

Q: What about the residual activity (TEK (human)) of the same compound?
A: 97.8%

Q: And the residual activity (TNK2 (human))?
A: 98%

Q: What about the residual activity (VRK1 (human)) of the same compound?
A: 96.7%

Q: And the residual activity (WEE1 (human))?
A: 91.8%

— the kinase profiling compilation of Christmann-Franck et al. (2016)
